Assay results: patent publication US5446065A, “Sulfonamides of phenylalkylamines or phenoxyalkylamines processes for their preparation and medicaments containing these compounds” (Boehringer Mannheim GmbH, priority 1990, dated 1995)

Assays:
[1] = system: U46619-induced bronchospasm of the guinea pig; assay: Inhibition of the U 46619-induced bronchospasm of the anaesthetised guinea pig; format: in vivo; settings: Cavia porcellus, iv, 10 min, test substance i.v., 10 μg/kg U 46619 i.v., AUC over 10 min, read-out: ID50 of U46619-induced bronchospasm of the guinea pig
Protocol: 3. Inhibition of the U 46619-induced bronchospasm of the anaesthetised guinea pig
Guinea pigs are anaesthetised with narcoren and provided with a jugular vein catheter and a tracheal canula. The animals are mechanically respirated with atmospheric air with 1 ml/100 g body weight. The tracheal canula is connected via a three-way stopcock with a Stathem pressure element which takes up the pressure resulting by the contraction of the smooth musculature in the trachea and passes on to a recorder via a measuring bridge. After achievement of a constant basal tonus, the animals receive 10 μg/kg U 46619 i.v. administered via the jugular vein catheter. The dose induces a rapidly increasing bronchospasm which, after about 10 minutes, again subsides and is very readily reproducable. After 15 minutes follows a second administration of 10 μg/kg U 46619, in the course of which, after 5 minutes, the test substance is given i.v. in various doses. After a further 15 minutes, the same dose of U 46619 is again injected. The areas under the curve over 10 min of the administration 1 and 3 are determined planimetrically on a Kontron-Videoplan unit and the bronchospasm after administration 3 calculated in percentage of the bronchospasm after administration 1. The ID50 of the test substance can be determined from the quotients.

[2] = system: pre-contracted isolated rat aortas; assay: TX-antagonistic action: inhibition of contraction of the isolated rat aorta ring pre-contracted with U 46619; format: cell-based; settings: aorta rings precontracted with 0.3 μmol/l U 46619, cumulative addition, 37° C.
Protocol: 1. TX-antagonistic action on the isolated rat sorts ring pre-contracted with U 46619
The isolated rat sorts freed from surrounding connective tissue is cut up into equally wide rings and superinfused in a 10 ml organ bath with Krebs-Hanseleit buffer at 37° C. After about 45 min., equilibration time, the sorts rings are precontracted with 0.3 μmol/l U 46619, a stable analogue of the prostaglandin endoperoxide PGH2 (Upjohn & Co., Kalamazoo, USA). U 46619 was characterised as selective thromboxane mimetic (Coleman et al., Brit. J. Pharmacol. 68, 127P, 1980). As soon as a stable plateau is reached (after about 15 min.), the test substance is added cumulatively directly into the organ bath to the aorta ring, beginning with 10 nmol/l, until either an end concentration of 100 μmol/l is reached or the contraction is completely antagonised. There is calculated the particular percentage inhibition of the contraction by the test substance. From the concentration-action curves is determined the IC50, i.e. the half maximum inhibiting concentration.

[3] = system: U 46619-caused lung embolism; assay: Prevention of the U 46619-caused lung embolism (survival); format: in vivo, male NMRI mice; settings: po, mouse, stomach probe, U 46619 injected 4 h later (800-1000 μg/kg, tail vein), read-out: survival rate of mouse 1 mg/kg after 4 h
Protocol: 2. Prevention of the U 46619-caused lung embolism
Male NMRI mice of about 25 g body weight are used. The test substance is suspended in 1% methyl cellulose solution and administered to the experimental animals by means of a stomach probe. The provocation test consists in that a dose lethal for the control animals (800-1000 μg/kg) of the thromboxane mimetic (U 46619 of the firm Upjohn) is rapidly injected into the tail vein. The period of the specific antagonistic action is tested in that the animals are pre-treated with 1 mg/kg of the various test substances and the injection of U 46619 takes place after 4 h. The survival rate indicates what percent of the animals used survive the injection of the thromboxane mimetic.

Structure (SMILES): O=C(COc1cccc(CCNS(=O)(=O)c2ccc(Cl)cc2)c1)N1CCCCC1 [Ex. 1 d, 3-[2-(4-chlorophenylsulphonylamino)-ethyl]-phenoxyacetylpiperidide]
- ED50 [1]: 0.5 mg/kg
- IC50 [2]: 3400 nM
- responders at 1 mg/kg [3]: 100%

Structure (SMILES): O=C(COc1cccc(CCNS(=O)(=O)c2ccc(Cl)cc2)c1)NCCO [Ex. 1 f, 3-[2-(4-chlorophenylsulphonylamino)-ethyl]-phenoxyacetic acid (2-hydroxyethylamide)]
- ED50 [1]: 0.02 mg/kg
- IC50 [2]: 1600 nM
- responders at 1 mg/kg [3]: 100%

Structure (SMILES): O=C(COc1cccc(CCNS(=O)(=O)c2ccc(Cl)cc2)c1)N(CCO)CCO [Ex. 1 g, 3-[2-(4-chlorophenylsulphonylamino)-ethyl]-phenoxyacetic acid 2-[bis-(2-hydroxyethyl)-amide]]
- ED50 [1]: 0.04 mg/kg
- IC50 [2]: 1600 nM
- responders at 1 mg/kg [3]: 100%

Structure (SMILES): O=C(COc1ccc(CCNS(=O)(=O)c2ccc(Cl)cc2)cc1)Nc1cccnc1 [Ex. 1 r, 4-[2-(4-chlorophenylsulphonylamino)-ethyl]-phenoxyacetic acid (3-pyridyl)-amide]
- ED50 [1]: 0.02 mg/kg
- IC50 [2]: 1000 nM
- responders at 1 mg/kg [3]: 90%

Structure (SMILES): CCNC(=O)COc1cccc(CCNS(=O)(=O)c2ccc(Cl)cc2)c1 [Ex. 2 a, 3-[2-(4-chlorophenylsulphonylamino)-ethyl]-phenoxyacetic acid ethylamide]
- ED50 [1]: 0.01 mg/kg
- IC50 [2]: 1800 nM
- responders at 1 mg/kg [3]: 100%

Structure (SMILES): NCCCc1ccc(CCNS(=O)(=O)c2ccc(Cl)cc2)cc1 [Ex. 4 m, 1-[4-[2-(4-chlorophenylsulphonylamino)-ethyl]-phenyl]-3-aminopropane]
- ED50 [1]: 0.05 mg/kg
- IC50 [2]: 3000 nM
- responders at 1 mg/kg [3]: 100%

Structure (SMILES): NCCCCc1ccc(CCNS(=O)(=O)c2ccc(Cl)cc2)cc1 [Ex. 4 s, 1-[4-[2-(4-chlorophenylsulphonylamino)-ethyl]-phenyl]-4-aminobutane]
- ED50 [1]: 0.1 mg/kg
- IC50 [2]: 2600 nM
- responders at 1 mg/kg [3]: 90%

Structure (SMILES): NCCOc1cccc(CCNS(=O)(=O)c2ccc(Cl)cc2)c1 [Ex. 4, 1-[3-[2-(4-Chlorophenylsulphonylamino)-ethyl]-phenoxy]-2-aminoethane]
- ED50 [1]: 0.01 mg/kg
- IC50 [2]: 340 nM
- responders at 1 mg/kg [3]: 100%

Structure (SMILES): NCCc1ccc(CCNS(=O)(=O)c2ccc(Cl)cc2)cc1 [Ex. 5, 1-[4-[2-(4-Chlorophenylsulphonylamino)-ethyl]-phenyl]-2-aminoethane]
- ED50 [1]: 0.05 mg/kg
- IC50 [2]: 100 nM
- responders at 1 mg/kg [3]: 100%
